Here are results for eleven compounds from PMC5045712 (Bioorganic & medicinal chemistry, 2016).

Each structure is given as a SMILES string.

In assay [1] the target is T1, B. anthracis DHOase (Bacillus anthracis, UniProt Q81WF0). Particulars: cited from earlier work.
The target of assay [2] is WT-DHOase (B. anthracis DHOase) (Bacillus anthracis, UniProt Q81WF0). Type of assay: biochemical.
A further assay deals with E. coli DHOase. Particulars: cited from earlier work.
The target in assay [3] is T1, B. anthracis DHOase. Type of assay: binding. Particulars: for KD (equilibrium dissociation constant determined by SPR): 25 °C.
The target in assay [4] is T1, B. anthracis DHOase. Format: binding.

T1 sequence (Q81WF0 whole entry, looked up): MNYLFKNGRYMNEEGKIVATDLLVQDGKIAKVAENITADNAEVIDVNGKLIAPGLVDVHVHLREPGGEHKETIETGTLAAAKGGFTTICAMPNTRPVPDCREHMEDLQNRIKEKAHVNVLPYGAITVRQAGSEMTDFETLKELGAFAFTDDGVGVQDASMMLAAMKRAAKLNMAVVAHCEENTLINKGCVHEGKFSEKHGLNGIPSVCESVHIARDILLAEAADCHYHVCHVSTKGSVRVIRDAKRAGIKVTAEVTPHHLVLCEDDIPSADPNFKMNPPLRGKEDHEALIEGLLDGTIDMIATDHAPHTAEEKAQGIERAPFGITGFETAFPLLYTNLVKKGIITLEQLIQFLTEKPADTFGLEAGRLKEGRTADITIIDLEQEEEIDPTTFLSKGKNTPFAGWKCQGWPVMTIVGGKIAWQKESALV
Sequence of WT-DHOase (B. anthracis DHOase) (Q81WF0 whole entry, looked up): as above

As to `Nc1c(C(=O)O)[nH]c(=O)[nH]c1=O` [5-aminoorotate (AOA), 5-aminoorotate], the “inhibition of B. anthracis DHOase” value on B. anthracis DHOase [1] is listed as “no inhibition”.
For `O=C(O)c1[nH]c(=O)[nH]c(=O)c1F` [5-fluoroorotate (FOA), 5-fluoroorotate], on B. anthracis DHOase [1], the “inhibition of B. anthracis DHOase” value is listed as “no inhibition”.
What is called Km is the substrate concentration at which the rate is half of its maximum. One may read the kcat as the number of substrate molecules converted per active site and unit of time at saturation. Turning to `NC(=O)N[C@@H](CC(=O)O)C(=O)O` [Ca-asp, carbamyl-asparate], the figures for the Km (in assay [2]; in the assay with E. coli DHOase) were 112 ± 24 µM and 1700 µM, respectively. Besides, the kcat in assay [2] is 2.1 ± 0.1 s⁻¹; in the assay on E. coli DHOase, 160 ± 8 s⁻¹.
For `CCC(=O)Nc1ccc(OC)cc1OC` [Compound 4], the “KD with 1 mM Ca-asp” value at B. anthracis DHOase [3] was “remained the same”. Further, on B. anthracis DHOase [4], the “shift in melting temperature (Tm)” value is recorded as “shows a shift in melting temperature”.
Regarding `COc1ccc2[nH]c3c(c2c1)CCNC3` [Compound 6a], at B. anthracis DHOase [3], the “KD with 1 mM Ca-asp” value is on record as “not affected” and the “fold change of KD relative to compound 6” value is recorded as ~ 1.5 fold.
As for `Cc1ccc2[nH]c3c(c2c1)CCNC3` [Compound 6b], the “KD (equilibrium dissociation constant determined by SPR)” value at B. anthracis DHOase [3] was “completely abolished”.
On the same count and under the same terms, the result for `COc1ccc2[nH]c(CN)cc2c1` [Compound 6c] reads “no interaction”.
As for `CSC1(NC#N)NCCc2c1[nH]c1ccc(F)cc21` (stereo not shown) [Compound 7], the “KD with 1 mM Ca-asp” value at B. anthracis DHOase [3] is “unable to be determined”.
As for `COc1ccc2[nH]c3c(c2c1)CCNC3(NC#N)SC` (stereo not shown) [Compound 7a], the “fold change of KD relative to compound 6” value on B. anthracis DHOase [3] is 18 fold.
`COc1ccc2[nH]c3c(c2c1)CN(C(C)=O)CC3` [Compound 8]: the “KD (equilibrium dissociation constant determined by SPR)” value on B. anthracis DHOase [3] was “weaker”.
On to `O=C1CC(C(=O)O)NC(=O)N1` (stereo not shown) [DHO, dihydroorotate], for which the Km was 114 ± 16 µM in assay [2] and 80 µM in the assay with E. coli DHOase. The kcat was 1.9 ± 0.1 s⁻¹ in assay [2] and 100 ± 1.6 s⁻¹ with E. coli DHOase.
